Experimental data taken from patent publication US20250243180A1, “TARGETED PROTEIN DEGRADATION” (Monte Rosa Therapeutics AG, priority 2023, published 2025).
Where two headings read alike, the source gives them in different places.

Legend:
CRBN-DDB1 = CRBN-DDB1 (Homo sapiens (Human), UniProt Q96SW2); test: Compound binding to CRBN by HTRF assay
Experimental: Compound activity was monitored in a Homogenous Time-Resolved Fluorescence (HTRF) assay using 1-[5-({2-[2-(2-{[2-(2,6-dioxopiperidin-3-yl)-1,3-dioxo-2,3-dihydro-1H-isoindol-4-yl]oxy}acetamido)ethoxy]ethyl}carbamoyl)pentyl]-3,3-dimethyl-2-[(1E,3E)-5-[(2E)-1,3,3-trimethyl-5-sulfo-2,3-dihydro-1H-indol-2-ylidene]penta-1,3-dien-1-yl]-3H-indol-1-ium-5-sulfonate as a fluorescent probe. Biochemical assays were conducted in Greiner white 384 well HiBase plates (Cat. No 784075-25) in 20 μL total volume. A one pot detection solution of CRBN-DDB1 (2.5 nM), Anti-His Terbium Cryptate Gold (1×, PerkinElmer Cat. #: 61HI2TLB), and Cy5-Thalidomide (100 nM, Tenova Cat.: T52461) was prepared in 20 mM HEPES, 20 mM NaCl, 0.2 mM TCEP, 0.2 mM EDTA, and 0.005% Tween20 was dispensed to each assay plate. Compounds were stored in dry, ambient temperatures at 10 mM. An 11-point, 1:3 dilution series was prepared from 10 mM stock concentrations in Echo-compatible LDV plates. 10 nL of each compound dilution series was dispensed into assays wells using an Echo 650 (Labcyte Inc. USA). 20 nL of 10 mM Lenalidomide was transferred into the active-control wells for the assay and 20 nL of DMSO was transferred into the neutral-control wells. The assay was then allowed to incubate for 30 min at ambient temperature after transferring compound. Plate measurements were taken on a Pherastar FSX (BMG Labtech, Germany) using the HTRF Red filter (Ex. 337 nm, em1: 620 nm, em2: 665 nm) (Flashes: 50, Integration time: 60-400 us, Z-height: 10 mm, Ratio-multiplier: 10,000). The HTRF signal was then subsequently normalized to the neutral and active controls. Analysis and EC50 values were derived using KNIME analytics (KNIME Zurich) transformation and fitting within Collaborative Drug Discovery (Collaborative Drug Discovery USA). Ki was derived from the geometric mean of the EC50 values using the Cheng-Prustoff transformation.

NEK7 = NEK7 (Homo sapiens (Human), UniProt Q8TDX7+Q96SW2); test: NEK7 NanoBiT degradation assay in Cal51 NEK7 NanoBiT cell line; format: cell-based; conditions: Cal51 NEK7 NanoBiT cells, 24 hours; for Dmax: CAL-51
Experimental: Cal51 NEK7 NanoBiT cell line was generated via CRISPR Knock-In of the HiBiT tag in NEK7 gene and stable infection with a lentivirus carrying LgBiT protein. The cell line was generated in house. For the experiment, cells were plated in 384-well white flat bottom plates (Corning, 3570BC) at 2500 cells per well using Multiflo (BioTek/Agilent) and in 25 μl volume in DMEM experimental medium: DMEM (DMEM, high glucose, HEPES, no phenol red (ThermoFisher Scientific, 21063029) supplemented with 10% FBS (Corning, 35-075-CV), 1% Penicillin/Streptomycin ((ThermoFisher Scientific, 15140-122), and 1% Endurazine (Nano-Glo Endurazine Live Cell Substrate (Promega, N2571)). Cells were incubated for 16 hours at 37° C., 5% CO2 before compound addition. For dose response determination, 2.5 nL of a compound at different concentrations (stock compound concentration range: 10 mM to 0.5 μM, final concentration range inside cell plate: 1 μM to 0.05 nM) were dispensed into the plate using an Echo® 650 liquid handling device (Backman Coulter/Labcyte). Cells were incubated at 37° C., 5% CO2 for 24 hours and then signal was read on a Pherastar FSX using “LUM plus” optic module with 4095 gain and measurement interval time 0.2 seconds.
Analysis was performed in Genedata Screener (Genedata, Basel, CH). Luminescence response (R) was calculated by the formula: response=100*(S−N)/(P−N) where S is the signal of the well, N and P the mean negative and positive control values respectively of the same plate. The luminescence response was then fitted in Genedata using a 4-parameter antagonist logistic fit (hill slope unconstrained, EC50>0, top/bottom unconstrained).

[1] = NEK7 degradation, read-out: NanoBiT Dmax
[2] = NEK7 degradation, read-out: NanoBiT DC50

CRBN-DDB1, sequence (Q96SW2 whole entry): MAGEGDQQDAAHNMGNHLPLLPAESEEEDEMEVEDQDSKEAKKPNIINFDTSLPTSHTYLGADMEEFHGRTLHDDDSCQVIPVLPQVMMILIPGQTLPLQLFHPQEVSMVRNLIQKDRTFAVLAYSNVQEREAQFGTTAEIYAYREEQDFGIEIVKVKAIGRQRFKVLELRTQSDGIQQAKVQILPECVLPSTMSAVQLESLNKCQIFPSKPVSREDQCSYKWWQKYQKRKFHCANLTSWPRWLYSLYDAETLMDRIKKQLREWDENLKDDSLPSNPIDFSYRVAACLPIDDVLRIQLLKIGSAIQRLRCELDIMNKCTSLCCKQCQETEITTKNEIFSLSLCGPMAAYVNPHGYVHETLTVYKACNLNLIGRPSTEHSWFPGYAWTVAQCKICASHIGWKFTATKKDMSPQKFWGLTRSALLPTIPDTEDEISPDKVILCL
CRBN-DDB1, sequence (Q16531 whole entry partner): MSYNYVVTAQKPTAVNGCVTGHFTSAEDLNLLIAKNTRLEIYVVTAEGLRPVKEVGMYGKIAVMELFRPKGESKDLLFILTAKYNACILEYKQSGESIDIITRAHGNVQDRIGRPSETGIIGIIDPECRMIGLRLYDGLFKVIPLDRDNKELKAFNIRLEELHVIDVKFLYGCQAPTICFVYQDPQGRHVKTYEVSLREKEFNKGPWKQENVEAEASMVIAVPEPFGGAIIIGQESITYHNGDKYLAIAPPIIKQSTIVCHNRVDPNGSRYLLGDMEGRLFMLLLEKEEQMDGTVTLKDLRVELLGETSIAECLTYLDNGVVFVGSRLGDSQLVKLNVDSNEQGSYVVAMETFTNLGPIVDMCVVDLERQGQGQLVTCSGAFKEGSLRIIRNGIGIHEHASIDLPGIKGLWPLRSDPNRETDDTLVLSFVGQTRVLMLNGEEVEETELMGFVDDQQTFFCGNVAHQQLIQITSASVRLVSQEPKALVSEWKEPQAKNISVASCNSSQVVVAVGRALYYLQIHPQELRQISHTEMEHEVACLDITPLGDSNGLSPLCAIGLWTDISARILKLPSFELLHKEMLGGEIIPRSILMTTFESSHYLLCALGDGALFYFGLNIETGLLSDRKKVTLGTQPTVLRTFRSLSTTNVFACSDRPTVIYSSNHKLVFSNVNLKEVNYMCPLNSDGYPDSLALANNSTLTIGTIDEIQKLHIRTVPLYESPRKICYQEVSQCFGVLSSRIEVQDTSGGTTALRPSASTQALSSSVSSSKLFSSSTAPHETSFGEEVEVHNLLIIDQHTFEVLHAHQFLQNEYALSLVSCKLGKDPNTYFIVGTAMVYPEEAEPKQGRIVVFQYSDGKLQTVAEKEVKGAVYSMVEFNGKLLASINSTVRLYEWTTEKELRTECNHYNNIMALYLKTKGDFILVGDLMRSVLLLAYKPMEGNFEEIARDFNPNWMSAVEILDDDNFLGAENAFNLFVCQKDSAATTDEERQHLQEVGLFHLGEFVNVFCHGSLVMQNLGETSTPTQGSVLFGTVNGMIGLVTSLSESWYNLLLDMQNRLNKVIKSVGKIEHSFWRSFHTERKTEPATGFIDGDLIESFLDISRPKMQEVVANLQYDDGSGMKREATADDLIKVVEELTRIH
NEK7, sequence (Q8TDX7 whole entry): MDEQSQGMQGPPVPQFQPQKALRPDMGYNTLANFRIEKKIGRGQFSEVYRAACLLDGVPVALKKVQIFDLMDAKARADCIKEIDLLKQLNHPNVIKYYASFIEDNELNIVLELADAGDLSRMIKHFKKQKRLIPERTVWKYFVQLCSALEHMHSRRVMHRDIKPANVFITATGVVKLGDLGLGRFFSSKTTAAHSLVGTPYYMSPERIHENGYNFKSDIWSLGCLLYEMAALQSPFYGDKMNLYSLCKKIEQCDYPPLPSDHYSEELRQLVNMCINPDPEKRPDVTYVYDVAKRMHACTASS
NEK7, sequence (Q96SW2 whole entry): as the sequence (Q96SW2 whole entry) above
NEK7, sequence (Q16531 2-1140 partner): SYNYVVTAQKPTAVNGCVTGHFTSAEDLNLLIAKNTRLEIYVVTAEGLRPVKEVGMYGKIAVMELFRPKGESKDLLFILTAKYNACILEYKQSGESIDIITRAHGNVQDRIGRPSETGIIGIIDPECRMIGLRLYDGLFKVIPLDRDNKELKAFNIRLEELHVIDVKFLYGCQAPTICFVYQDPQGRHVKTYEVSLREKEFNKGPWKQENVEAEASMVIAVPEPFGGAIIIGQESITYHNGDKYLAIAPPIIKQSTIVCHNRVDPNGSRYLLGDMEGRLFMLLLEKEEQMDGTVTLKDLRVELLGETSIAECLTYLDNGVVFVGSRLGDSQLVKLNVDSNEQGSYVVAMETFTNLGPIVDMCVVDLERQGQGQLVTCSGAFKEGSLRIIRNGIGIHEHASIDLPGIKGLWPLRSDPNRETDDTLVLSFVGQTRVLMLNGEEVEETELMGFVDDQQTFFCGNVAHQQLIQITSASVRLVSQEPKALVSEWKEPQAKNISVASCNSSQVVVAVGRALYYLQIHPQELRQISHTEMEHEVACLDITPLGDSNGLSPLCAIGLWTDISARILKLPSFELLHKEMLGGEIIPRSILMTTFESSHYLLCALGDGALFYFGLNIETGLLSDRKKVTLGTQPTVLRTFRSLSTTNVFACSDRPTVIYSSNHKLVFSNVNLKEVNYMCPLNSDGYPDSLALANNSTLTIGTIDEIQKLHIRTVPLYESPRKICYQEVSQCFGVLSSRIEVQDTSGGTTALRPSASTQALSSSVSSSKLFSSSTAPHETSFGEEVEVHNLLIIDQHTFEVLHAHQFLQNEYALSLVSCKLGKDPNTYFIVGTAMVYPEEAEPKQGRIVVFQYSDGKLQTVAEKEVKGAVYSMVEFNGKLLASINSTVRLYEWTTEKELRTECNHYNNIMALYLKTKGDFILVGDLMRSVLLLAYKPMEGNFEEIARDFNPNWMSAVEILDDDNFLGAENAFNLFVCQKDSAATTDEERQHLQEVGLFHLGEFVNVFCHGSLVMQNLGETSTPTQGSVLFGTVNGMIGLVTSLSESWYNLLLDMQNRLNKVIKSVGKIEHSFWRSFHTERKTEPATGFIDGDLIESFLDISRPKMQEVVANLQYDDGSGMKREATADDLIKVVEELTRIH

SMILES	EC50 (CRBN-DDB1) [nM]	EC50 (CRBN-DDB1; HTRF class, Cereblon binding) [nM]	Dmax (NEK7; read-out: NEK7 NanoBiT Dmax) [%]	Dmax (NEK7; [1]) [%]	DC50 (NEK7; read-out: NEK7 NanoBiT DC50) [nM]	DC50 (NEK7; [2]) [nM]
Cc1nc(C(C)(C)C(=O)NCc2cc(Cl)c(C3CCC(=O)NC3=O)c(Cl)c2)oc1C (centres unmarked) [Compound 212]	70	≤ 100	90	> 75	6	≤ 100
CC(C)(C(=O)NCc1cc(Cl)c(C2CCC(=O)NC2=O)c(Cl)c1)c1ccc2nonc2c1 (centres unmarked) [Compound 81]	70	≤ 100	98	> 75	0.4	≤ 100
CC(C)(C(=O)NCc1cc(F)c(C2CCC(=O)NC2=O)c(Cl)c1)c1ccc(OCC(F)F)nc1 (centres unmarked) [Compound 269, N-(3-chloro-4-(2,6-dioxopiperidin-3-yl)-5-fluorobenzyl)-2-(6-(2,2-difluoroethoxy)pyridin-3-yl)-2-methylpropanamide]	100	100 to 1000	95	> 75	1	≤ 100
CC(C)(C(=O)NCc1cc(Cl)c(C2CCC(=O)NC2=O)c(Cl)c1)c1ncc(CO)cn1 (centres unmarked) [Compound 231, N-(3,5-dichloro-4-(2,6-dioxopiperidin-3-yl)benzyl)-2-(5-(hydroxymethyl)pyrimidin-2-yl)-2-methylpropanamide]	140	100 to 1000	82	> 75	23	≤ 100
CC(F)(F)c1cnc(C(C)(C)C(=O)NCc2cc(Cl)c(C3CCC(=O)NC3=O)c(Cl)c2)nc1 (centres unmarked) [Compound 187]	100	100 to 1000	93	> 75	4	≤ 100
CCOc1cnc(C(C)(C)C(=O)NCc2cc(Cl)c(C3CCC(=O)NC3=O)c(Cl)c2)cn1 (centres unmarked) [Compound 234, N-(3,5-dichloro-4-(2,6-dioxopiperidin-3-yl)benzyl)-2-(5-ethoxypyrazin-2-yl)-2-methylpropanamide]	70	≤ 100	97	> 75	1	≤ 100
CC(C)(C(=O)NCc1cc(Cl)c(C2CCC(=O)NC2=O)c(Cl)c1)c1cccc2ocnc12 (centres unmarked) [Compound 171]	120	100 to 1000	90	> 75	7	≤ 100
CC1(C(=O)NCc2ccc(C3CCC(=O)NC3=O)c(Cl)c2)CCc2ccccc2C1 (centres unmarked) [Compound 102]	–	–	86	> 75	51	≤ 100
O=C1CCC(c2c(Cl)cc(CNC(=O)C3(c4ccccc4)CCC3)cc2Cl)C(=O)N1 (centres unmarked) [Compound 130, N-(3,5-dichloro-4-(2,6-dioxopiperidin-3-yl)benzyl)-1-phenylcyclobutane-1-carboxamide]	40	≤ 100	96	> 75	2	≤ 100
CC(C)(C(=O)NCc1cc(Cl)c(C2CCC(=O)NC2=O)c(Cl)c1)c1cncs1 (centres unmarked) [Compound 114]	–	–	69	50 to 75	52	≤ 100
CC(C)(C(=O)NCc1cc(Cl)c(C2CCC(=O)NC2=O)c(Cl)c1)c1ccc(CC#N)nn1 (centres unmarked) [Compound 214]	–	–	49	≤ 50	635	100 to 1000
Cc1noc(C)c1C(C)(C)C(=O)NCc1cc(Cl)c(C2CCC(=O)NC2=O)c(Cl)c1 (centres unmarked) [Compound 112]	–	–	40	≤ 50	1000	> 1000
CC(C)(C(=O)NCc1cc(Cl)c(C2CCC(=O)NC2=O)c(Cl)c1)c1cc[nH]n1 (centres unmarked) [Compound 115]	–	–	76	> 75	43	≤ 100
Cn1ccc(C(C)(C)C(=O)NCc2cc(Cl)c(C3CCC(=O)NC3=O)c(Cl)c2)n1 (centres unmarked) [Compound 117]	–	–	74	50 to 75	51	≤ 100
Cc1cc(C(C)(C)C(=O)NCc2cc(Cl)c(C3CCC(=O)NC3=O)c(Cl)c2)nn1C (centres unmarked) [Compound 116]	–	–	80	> 75	20	≤ 100
CC(C)(C(=O)NCc1cc(Cl)c(C2CCC(=O)NC2=O)c(Cl)c1)c1cscn1 (centres unmarked) [Compound 113]	–	–	61	50 to 75	151	100 to 1000
CC(C)(C(=O)NCc1ccc(C2CCC(=O)NC2=O)c(Cl)c1)c1ccc(Cl)cc1 (centres unmarked) [Compound 101]	–	–	95	> 75	5	≤ 100
CC(C)(C(=O)NCc1ccc(C2CCC(=O)NC2=O)c(Cl)c1)c1ccc(OC(F)(F)F)cc1 (centres unmarked) [Compound 100]	–	–	91	> 75	45	≤ 100
Cn1cnnc1C(C)(C)C(=O)NCc1cc(Cl)c(C2CCC(=O)NC2=O)c(Cl)c1 (centres unmarked) [Compound 119]	–	–	45	≤ 50	1000	> 1000
CC(C)(C(=O)NCc1cc(Cl)c(C2CCC(=O)NC2=O)c(Cl)c1)c1c[nH]cn1 (centres unmarked) [Compound 118]	–	–	48	≤ 50	760	100 to 1000
CC(C)(C(=O)NCc1ccc(C2CCC(=O)NC2=O)c(Cl)c1)c1ccc(Cl)nc1 (centres unmarked) [Compound 105]	–	–	84	> 75	58	≤ 100
CC(C)(C(=O)NCc1ccc(C2CCC(=O)NC2=O)c(Cl)c1)c1cccc(C(F)(F)F)n1 (centres unmarked) [Compound 104]	–	–	80	> 75	122	100 to 1000
